Measured values as given in patent US9895077B2, “Method for diagnosing a brain related disorder using brain network activity patterns” (Elminda Ltd., priority 2010, dated 2018).

Legend:
Type in all cases: in vivo, human
ADHD subjects = assay: BNA pattern similarity from EEG data of ADHD subjects before and following treatment with MPH
From the text: The BNA patterns shown in FIGS. 6A-D are associated subject-specific BNA patterns constructed from EEG data recorded from a particular ADHD subject. The black dots in FIGS. 6A-D show the locations of the EEG electrodes. The color codes in these BNA patterns are the same as defined above. The subject-specific BNA patterns shown in FIGS. 6A-B describe the association of the ADHD subject to a group of untreated ADHD subjects, and the BNA patterns shown in FIGS. 6C-D describe the association of the ADHD subject to a group of ADHD subjects all treated with methylphenidate (MPH). The subject-specific BNA patterns shown in FIGS. 6A and 6C are based on EEG data recorded from the ADHD subject before any treatment, and subject-specific BNA patterns shown in FIGS. 6B and 6D are based on EEG data recorded from the ADHD subject following a treatment with MPH.
The baseline annotated BNA pattern constructed from the group of untreated ADHD subjects, and the baseline annotated BNA pattern constructed from the same group of subjects, but following treatment with MPH are shown in FIGS. 6E and 6F, respectively.
A BNA pattern similarity was calculated for each of the subject-specific BNA patterns shown in FIGS. 6A-D. The calculated similarity corresponding to the BNA pattern of FIG. 6A is 0.73, the calculated similarity corresponding to the BNA pattern of FIG. 6B is 0.19, the calculated similarity corresponding to the BNA pattern of FIG. 6C is 0.56, and the calculated similarity corresponding to the BNA pattern of FIG. 6D is 0.6.
The BNA patterns shown in FIGS. 7A-D were constructed from EEG data recorded from a different ADHD subject, which was also treated with MPH according to the same protocol as described above with respect to the responder subject of FIGS. 6A-D. The black dots in FIGS. 7A-D show the locations of the EEG electrodes, and the color codes in these BNA patterns is the same as defined above. Thus, the subject-specific BNA patterns shown in FIGS. 7A-B describe the association of the ADHD subject to a group of untreated ADHD subjects, and the BNA patterns shown in FIGS. 7C-D describe the association of the ADHD subject to a group of ADHD subjects all treated with methylphenidate (MPH). The subject-specific BNA patterns shown in FIGS. 7A and 7C are based on EEG data recorded from the ADHD subject before any treatment, and subject-specific BNA patterns shown in FIGS. 7B and 7D are based on EEG data recorded from the ADHD subject following a treatment with MPH.
A BNA pattern similarity was calculated for each of the subject-specific BNA patterns shown in FIGS. 7A-D. The calculated similarity corresponding to the BNA pattern of FIG. 7A is 0, the calculated similarity corresponding to the BNA pattern of FIG. 7B is 0, the calculated similarity corresponding to the BNA pattern of FIG. 7C is 0.06, and the calculated similarity corresponding to the BNA pattern of FIG. 7D is 0.

[1] = system: healthy volunteer subjects; assay: BNA pattern analysis of EEG data during auditory oddball task, scopolamine vs placebo; conditions: for BNA pattern similarity to placebo group baseline BNA pattern: following scopolamine, oddball task
From the text: FIGS. 8A-D show associated subject-specific BNA patterns constructed from EEG data recorded from two healthy volunteer subjects. The black dots in FIGS. 8A-D show the locations of the EEG electrodes, and the color codes in these BNA patterns are the same as defined above. The subject-specific BNA patterns shown in FIGS. 8A-D describe the association of the subjects to a group of healthy subjects following treatment with a placebo drug and while performing an attention task related oddball task.
FIGS. 8A and 8C are subject-specific BNA patterns constructed from EEG data collected from a first subject (FIG. 8A) and a second subject (FIG. 8C) following treatment with a placebo, and FIGS. 8B and 8D are subject-specific BNA patterns constructed from EEG data collected from the first subject (FIG. 8B) and the second subject (FIG. 8D) following treatment with a scopolamine drug. Scopolamine is an anticholinergic drug with inhibitory effect on M2-cholinergic receptors of excited type. It has an inhibitory effect on the cerebral cortex, typically inducing slight-anesthetic effect.
All subjects were administered with Scopolamine 0.4 mg, and Saline serving as a placebo drug, on consecutive days, in a randomized order.
In the auditory oddball target detection test, the subjects were requested to respond to auditory target stimuli that occur infrequently and irregularly within a series of standard stimuli. The standard stimulus was in the form of a 1000 Hz tone, and the target stimulus was in the form of a 2000 Hz tone. The intervals between two successive stimuli (standard or target) were 1.5 seconds. Each subject was exposed to a series of stimuli, of which 80% were standard stimuli and 10% were target stimuli. The additional 10% were background sounds (referred to as “novel stimuli”).
All subjects underwent EEG recordings during the tests. ERPs were recorded using 64 Ag—AgCl active electrodes (ActiveTwo, Biosemi) attached to the scalp by located according to the 10-20 international system, and filled with a conducting gel (Signa, Parker).
Two group BNA patterns (one BNA pattern for the placebo group and one BNA pattern for the scopolamine group), and several subject-specific BNA patterns were constructed according to the teachings of the present embodiments as described in Example 1 above. The similarities between the subject-specific BNA pattern and the group BNA patterns were calculated as described in Example 1 above, except for the following provisions on data selection.
Two types of group BNA patterns were constructed in this example. A first type, referred to herein as a DIFF BNA pattern, described the activity that most differentiated between two groups or two conditions. In this type, data features that appeared in at least 11 subjects out of a maximum number of 15 subjects in one group, but a difference threshold (the number of subjects that had the pattern in one group minus the number of subjects that had the pattern in the other group) of 2 subjects, was used to construct the BNA pattern. […] The SI quantities for this type of BNA patterns were calculated as described in Example 1 above.

[2] = system: healthy volunteer subjects; assay: Clinical observation of behavioral endpoint following treatment with scopolamine
Method: A BNA pattern similarity was calculated for each of the subject-specific BNA patterns shown in FIGS. 8A-D. The calculated similarities are 0.937, 0.079, 1.0 and 0.94, respectively. It is recognized by the present inventors that these similarity values indicate that the responsivity to scopolamine is high for the first subject (FIGS. 8A and 8B) and low for the second subject (FIGS. 8C and 8D).

[3] = system: healthy volunteer subjects; assay: BNA pattern analysis of EEG data during working memory test (encoding/retrieval), drug vs placebo; conditions: for effect on central and frontal activation in group BNA pattern / effect on fronto-parietal part / connectivity of group BNA pattern: group BNA patterns (FIGS. 10C-D, 10G-H) vs placebo

In the case of `COC(=O)C(c1ccccc1)C1CCCCN1` (stereo not shown) [MPH, methylphenidate], the “responsiveness of the subject to the treatment, as indicated by similarity values” (ADHD subjects; ADHD subject of FIGS. 6A-D) is reported as “responsive to the treatment”, the “BNA pattern similarity to the baseline BNA pattern for the untreated ADHD group” value (ADHD subjects; ADHD subject of FIGS. 6A-D (FIG. 6B), following a single dose treatment with MPH, before treatment 0.73) is reported as 0.19 and the “BNA pattern similarity to the baseline BNA pattern for the treated ADHD group” value (ADHD subjects; ADHD subject of FIGS. 6A-D (FIG. 6D), following a single dose treatment with MPH, before treatment 0.56) is reported as 0.6. The “responsiveness of the subject to the treatment, as indicated by similarity values” (ADHD subjects; ADHD subject of FIGS. 7A-D) was “not responsive to the treatment”, the “BNA pattern similarity to the group of untreated ADHD subjects” value (ADHD subjects; different ADHD subject of FIGS. 7A-D (FIG. 7B), following treatment with MPH, before treatment 0) was 0 and the “BNA pattern similarity to the group of ADHD subjects treated with MPH” value (ADHD subjects; different ADHD subject of FIGS. 7A-D (FIG. 7D), following treatment with MPH, before treatment 0.06) was 0.
For `CN1[C@@H]2C[C@@H](OC(=O)[C@H](CO)c3ccccc3)C[C@H]1[C@@H]1O[C@@H]12` [scopolamine], the “BNA pattern similarity to placebo group baseline BNA pattern” value ([1]; first healthy subject (FIG. 8B), after placebo 0.937) was 0.079, the “responsivity to scopolamine, as indicated by similarity values” ([1]; first subject (FIGS. 8A and 8B)) was “high” and the “number of scopolamine subjects fulfilling the placebo pattern” value ([1]; oddball test, detection of novel stimuli, Delta frequency pattern (FIGS. 29A-D), 14 in placebo group) was 0 subjects. For the same molecule, the “number of subjects in the scopolamine group showing the scopolamine pattern (group-subject value)” value ([1]; oddball test, detection of target stimuli, Beta (12-18 Hz) pattern (FIGS. 28A-C), Scopolamine 0.4 mg, 15 subjects, 1 placebo subject) was 12 subjects, the “number of scopolamine subjects fulfilling the placebo pattern” value ([1]; oddball test, detection of target stimuli, Delta frequency pattern (FIGS. 27A-D), Scopolamine 0.4 mg, 15 subjects, 12 in placebo group) was 4 subjects and the pattern differentiation level ([1]; placebo pattern, detection of novel stimuli (FIGS. 29A-D), placebo vs scopolamine group) was 14. The pattern differentiation level ([1]; placebo pattern, detection of target stimuli (FIGS. 27A-D), placebo vs scopolamine group) was 8, the pattern differentiation level ([1]; scopolamine pattern, detection of target stimuli (FIGS. 28A-C), scopolamine vs placebo group) was 11 and the “BNA pattern similarity to placebo group baseline BNA pattern” value ([1]; second healthy subject (FIG. 8D), after placebo 1.0) was 0.94. For the same molecule, the “responsivity to scopolamine, as indicated by similarity values” ([1]; second subject (FIGS. 8C and 8D)) was “low”, the “decrease in behavioral endpoint” value ([2]; first subject) was 70% and the “change in behavioral endpoint” value ([2]; second subject) was “no change”. For the same molecule, the pattern differentiation level ([3]; encoding placebo DIFF BNA pattern, placebo vs scopolamine group) was 11, the pattern differentiation level ([3]; encoding scopolamine DIFF BNA pattern, scopolamine vs placebo group) was 10 and the pattern differentiation level ([3]; retrieval placebo DIFF BNA pattern, placebo vs scopolamine group) was 13. The pattern differentiation level ([3]; retrieval scopolamine DIFF BNA pattern, scopolamine vs placebo group) was 14, the “number of scopolamine subjects fulfilling the encoding placebo DIFF BNA pattern” value ([3]; working memory test, encoding process (FIGS. 10A, 32-34), 13 in placebo group) was “Two” and the “number of subjects in the scopolamine group showing the encoding scopolamine DIFF BNA pattern (group-subject value)” value ([3]; working memory test, encoding process (FIGS. 10C, 35A-B), three placebo subjects) was 13 subjects. The “effect on central and frontal activation in group BNA pattern” value ([3]; working memory test) was “extensive compensatory central and frontal activation”, the “effect on fronto-parietal part / connectivity of group BNA pattern” value ([3]; working memory test) was “low connectivity between frontal and parietal regions” and the “number of scopolamine subjects fulfilling the retrieval placebo DIFF BNA pattern” value ([3]; working memory test, retrieval process (FIGS. 10B, 30A-C), 14 in placebo group) was “One”. The “number of subjects in the scopolamine group showing the retrieval scopolamine DIFF BNA pattern (group-subject value)” value ([3]; working memory test, retrieval process (FIGS. 10D, 31A-E), one placebo subject) was 15 subjects.
With `CNC1(c2ccccc2Cl)CCCCC1=O` (stereo not shown) [ketamine] the “effect on central and frontal activation in group BNA pattern” value ([3]; working memory test) was “increased central and frontal activation”, the “effect on fronto-parietal part / connectivity of group BNA pattern” value ([3]; working memory test) was “No significant change” and the “effect on right lateralization in group BNA pattern” value ([3]; working memory test, group BNA patterns (FIGS. 10G-H) vs placebo) was “decreased right lateralization”.
